Test results as given in patent US20140274766A1, “METHODS OF USING F-SPONDIN AS A BIOMARKER FOR CARTILAGE DEGENERATIVE CONDITIONS AND BONE DISEASES” (priority 2009, published 2014).

Key:
[1] = system: F-spondin expression in human chondrocytes; experiment: Induction of F-spondin expression in human chondrocytes, TaqMan quantitative PCR; format: cell-based
Source text: In another particular embodiment, the candidate compound is further tested for an effect in an animal model for arthritis, or a cartilage degenerative condition, wherein said arthritis or cartilage degenerative condition is characterized by elevated levels of F-spondin. Examples of animal models for studying arthritis and cartilage degenerative conditions may be found in the following publications, which are incorporated in their entireties: Ameye, L. G. et al., Current Opinion in Rheumatology (2006), 18(5):537-547; Warskyj, M. and Hukins, D W, Br. J. of Rheumatology (1990), 29:219-221; Bolter, S. M. et al., Biorheology, (2006), 43(3-4):379-388; Carlson, C. S. et al., J. Bone Miner. Res. (1996), September; 11(9):1209-1217; Moreau, M. et al., J. Rheumatology (2006), June; 33(6):1176-1183; Laurent, D. et al. Skeletal Radiol., (2006), August; 35(8):555-564; Hotta, H. et al. J. Orthop. Sci. (2005), November; 10(6):595-607; Mastbergen, S. C. et al. Rheumatology (Oxford), (2006), April; 45(4):405-413; and Mastbergen, S. C. et al., Osteoarthritis Cartilage (2006), January; 14(1):39-46. Chambers M. G. et al., Arthritis and Rheumatism (2001) June 44(6):1455-1465. In another particular embodiment, the potential inducers of F-spondin in cartilage/chondrocytes for use in a therapeutic setting may be selected from the group consisting of prostaglandin E2 (PGE2), cAMP inducers, Bone morphogenic protein 2 (BMP-2), Insulin-like growth factor (IGF), Fibroblast growth factor basic (FGFbasic) and Transforming Growth factor b1 (TGF-b1). […] Accordingly, it is envisioned that these agents may be used for treating conditions as described herein.

[2] = system: OA chondrocytes; experiment: Effect of PGE2 on chondrocytes (secretion, NURR1 QPCR); format: cell-based, human
Procedure: (§1) F-spondin induced both catabolic and anabolic gene/gene products in chondrocytes including BMP-2, type II collagen, TGF-β1, COX-2, mPGES and PGE2. To begin to address the question of whether selected F-spondin effects in cartilage are mediated by prostaglandin production, we have begun studies to characterize the effect of PGE2 in cartilage. Addition of PGE2 (1-10 uM) to cartilage explants inhibited type II collagen, aggrecan expression, ^35SO4 incorporation, as well as increased type II collagen degradation as assessed by C12C ELISA (IBEX). […] Relative to normals, NURR1 was overexpressed in OA cartilage (2-5 fold) and synovium (2 fold), confirmed by QPCR. Incubation of OA chondrocytes with PGE2 (1-10 uM) induced NURR1 expression (20-50 fold), as analyzed by QPCR. Since NURR1 binds to the NURR1 cis-acting sequence (NBRE) in the promoter region of a variety of genes, we examined the effect of adenoviral-mediated over-expression of NURR1 in chondrocytes.

[3] = system: cartilage explants; experiment: Effect of PGE2 on cartilage explants; format: cell-based, human; conditions: PGE2 1-10 uM
Procedure: as §1

[4] = system: chick sternal chondrocytes; experiment: Retinoic acid induced maturation of chick sternal chondrocytes (RT-PCR, AP staining); format: cell-based
Procedure: FIGS. 21A and 21B. […] Upper sternal chondrocytes were exposed to 0, 10, 35 or 100 nM retinoic acid (RA) for 5 days in culture. […] (B) Relative gene expression levels of chondrocyte maturation markers were determined by semi-quantitative RT-PCR of RNA harvested from parallel cultures. Values represent mean±std deviation for triplicate samples.
Chondrocytes were isolated from the cephalic and caudal portion of day 14 chick embryo sterna as described by (Teixeira C C, Shapiro I M, Hatori M, Rajpurohit R, Koch C. Retinoic acid modulation of glutathione and cysteine metabolism in chondrocytes. Biochem J 1996; 314 (Pt 1):21-6). After 5 days of primary culture, chondrocytes were separated from the attached fibroblasts, harvested by centrifugation, counted, and plated in tissue culture dishes in complete medium supplemented with hyaluronidase (4-units/ml) to promote attachment. After becoming confluent, and to induce maturation, cells were treated daily with all-trans retinoic acid (35-100 nM) (Sigma) in the presence of ascorbate-2-phosphate (100 μM) for 1 week. Control cultures were treated with an equal volume of vehicle. Cultures were provided with β-glycerophosphate (5 mM) to serve as phosphate donor. For transfections, chondrocytes were transiently transfected with a plasmid encoding full length F-spondin cDNA under control of a CMV promoter, 1 day after plating in monolayer culture, using the FuGene 6 Transfection Reagent (Roche, Nutley, N.J.) according to the manufacturer's specifications. Parallel transfections with a CMV-GFP plasmid was used as a null control and to estimate transfection efficiency.
To investigate the role of F-spondin in chondrocyte maturation, we used an in vitro model in which chick sternal chondrocytes mimic growth plate chondrocytes and undergo terminal differentiation in response to RA treatment. […] Chick chondrocytes were stimulated with increasing doses of RA (10-100 nm) and harvested for gene expression analysis by qPCR after 5 days. The relative gene expression of type X collagen (ColX), alkaline phosphatae (AP), MMP-13, and F-spondin were assessed with increasing maturation on RA stimulation (FIG. 14).
Chondrocytes were isolated from the cephalic (upper) portion of 14 day old chick embryo sterna as previously described (Teixeira, C. C., et al. (1995) Calcif Tissue Int 56:252-56).^15. After 5 days of primary culture, floating chondrocytes were separated from the attached fibroblasts, and plated in tissue culture dishes in DMEM supplemented with 10% FBS and hyaluronidase (4-units/ml) to promote attachment. At confluence, differentiation was induced by daily treatment with all-trans retinoic acid (RA) from 0.1% v/v aliquots of a 1000-fold stock solution in 95% ethanol. Final concentrations ranged from 10 to 100 nM. To examine the effect of F-spondin overexpression, cultures were transfected at 70-80% confluence, with either full length (pFSI), truncated (pFS6) F-spondin cDNAs or control vector pcDNA3 (Invitrogen) using GenePorter transfection reagent (Genlantis, San Diego, Calif.). Differentiation was induced by daily treatments with 100 nM RA, which were initiated the following day. For F-spondin inhibition studies, a TSR domain specific F-spondin antibody (R1), or a spondin domain specific F-spondin antibody (R4) (R1 and R4 antibodies were provided by Dr. Avihu Klar (Hebrew University, Jerusalem, Israel), were added to chondrocyte cultures (1:100 dilution), every other day 1 h prior to RA treatment.
Different regions of the chick growth plate were visually identified and dissected into separate tubes, frozen in liquid nitrogen and crushed. Total RNA was extracted using Trizol® reagent (Life Technologies, Gaitherburg, Md.) per manufacturer's instructions.

[5] = system: bone marrow-derived MSCs; experiment: Chondrogenesis of bone marrow-derived MSC aggregate cultures; format: cell-based; conditions: for staining for proteoglycan, type II and type X collagen: 21 d aggregates, adenoviral expression 50 ng/ml; for chondrogenesis in aggregate cultures: adult bone marrow-derived MSCs
Procedure: FIG. 6: Chondrogenesis of postnatal MSCs following exposure to TGF-β and BMP-2. Bone marrow-derived MSCs were modified to express 50 ng/ml BMP-2 or TGF-β1 using first generation recombinant adenoviral vectors and seeded into high density aggregates. After 21 d, aggregates were fixed, sectioned and stained for the presence of chondrogenic markers using toluidine blue (proteoglycan) and immunostaining for type II and X collagen. This pattern was consistent over three experiments.
Upon histological examination important differences between TGF-β1 and BMP-2-treated cultures were noted (FIG. 6). […] We propose to extend these studies further, in order to more fully characterize extracellular matrix protein expression during chondrocyte maturation and the relationship to F-spondin, by comparing the effects of various chondroinductive factors.

For CCCCC[C@H](O)/C=C/[C@H]1[C@H](O)CC(=O)[C@@H]1C/C=C\CCCC(=O)O [PGE2, prostaglandin E2], the F-spondin expression [1] was “induced F-spondin expression”, the “induction of NURR1 expression” value ([2]; OA chondrocytes, PGE2 1-10 uM, QPCR) was 20-50 fold and the MMP-1 secretion ([2]; chondrocytes) was “decreased”. For the same molecule, the “secretion of IL-6” value ([2]; chondrocytes) was “increased”, the “secretion of IL-8” value ([2]; chondrocytes) was “increased” and the “secretion of MMP-13” value ([2]; chondrocytes) was “increased”. For the same molecule, the 35SO4 incorporation [3] was “inhibited”, the aggrecan expression [3] was “inhibited” and the “type II collagen degradation (C12C ELISA)” value [3] was “increased”. For the same molecule, the “type II collagen expression” value [3] was “inhibited”.

CC1=C(/C=C/C(C)=C/C=C/C(C)=C/C(=O)O)C(C)(C)CCC1 [RA, all-trans retinoic acid] was tested, and the “F-spondin expression relative to controls” value ([4]; 100 nM RA, 5 days, p=0.04) was “approximately 3 fold”, the MMP-13 expression ([4]; RA 0-100 nM, 5 days, RT-PCR) was “increased” and the VEGF expression ([4]; RA 0-100 nM, 5 days, RT-PCR) was “increased”. The “type I collagen expression” value ([4]; RA 0-100 nM, 5 days, RT-PCR) was “pronounced upregulation”, the “type II collagen expression” value ([4]; RA 0-100 nM, 5 days, RT-PCR) was “marked downregulation” and the “type X collagen expression” value ([4]; RA 0-100 nM, 5 days, RT-PCR) was “did not increase”. For the same molecule, the “AP activity (red staining)” value ([4]; RA 0-100 nm, 5 days) was “dose dependant increase”, the “increase in F-spondin gene expression” value ([4]; RA 10-100 nm, 5 days, vs non-stimulated controls) was 2- to 4 fold and the “upregulation of F-spondin following RA treatment” value ([4]; chick sternal model, p<0.05) was 3.5 fold.

In the case of “FGF basic: Fibroblast growth factor basic”, the F-spondin expression [1] is reported as “induced F-spondin expression”.

In the case of “TGF-β1: Transforming growth factor-beta 1”, the F-spondin expression [1] is reported as “induced F-spondin expression”, the “staining for proteoglycan, type II and type X collagen” value [5] is reported as “generally lower” and the “chondrogenesis in aggregate cultures” value [5] is reported as “undergo chondrogenesis”.

B1: BMP-2: protein that induces the formation of bone and cartilage (protein, listed as Homo sapiens)
chain: MVAGTRCLLALLLPQVLLGGAAGLVPELGRRKFAAASSGRPSSQPSDEVLSEFELRLLSMFGLKQRPTPSRDAVVPPYMLDLYRRHSGQPGSPAPDHRLERAASRANTVRSFHHEESLEELPETSGKTTRRFFFNLSSIPTEEFITSAELQVFREQMQDALGNNSSFHHRINIYEIIKPATANSKFPVTRLLDTRLVNQNASRWESFDVTPAVMRWTAQGHANHGFVVEVAHLEEKQGVSKRHVRISRSLHQDEHSWSQIRPLLVTFGHDGKGHPLHKREKRQAKHKQRKRLKSSCKRHPLYVDFSDVGWNDWIVAPPGYHAFYCHGECPFPLADHLNSTNHAIVQTLVNSVNSKIPKACCVPTELSAISMLYLDENEKVVLKNYQDMVVEGCGCR
In the case of B1, the F-spondin expression [1] is reported as “induced F-spondin expression”, the “staining for proteoglycan, type II and type X collagen” value [5] is reported as “more intense staining” and the “chondrogenesis in aggregate cultures” value [5] is reported as “undergo chondrogenesis”.
